Reference: paper PMC8041433 (Environmental Health Perspectives, 2021)
Where “and” joins values, the source holds several entries; their conditions need not be identical. Identical values can stand only once. Counter-ions that a name gives are not always drawn. Like-named read-outs stand apart in the source and are kept apart here.

Columns and labels:
[1] = target: T1, recombinant human AChE (Homo sapiens, UniProt P22303); assay: biochemical
[2] = target: AChE in SH-SY5Y cells (Homo sapiens, UniProt P22303); assay: cell-based
[3] = target: T1, recombinant human AChE
[4] = target: T1, recombinant human AChE; assay: biochemical; remark: listed apart in the source
[5] = target: T1, recombinant human AChE; assay: biochemical; assay type: biochemical; conditions: for AC50: AC50 (uM)
[6] = target: T1, recombinant human AChE; assay: biochemical; remark: listed apart in the source
[7] = target: AChE in neural stem cells (Homo sapiens, UniProt P22303); assay: cell-based
[8] = target: AChE in SH-SY5Y spheroids (Homo sapiens, UniProt P22303); assay: cell-based; conditions: potency (IC50)
[9] = target: AChE in neural stem cell spheroids (Homo sapiens, UniProt P22303); assay: cell-based; conditions: potency (IC50)
[10] = potency (IC50), SH-SY5Y cells monolayer
[11] = Neural stem cell spheroid (24 h)
[12] = Neural stem cell spheroid (48 h)
[13] = potency (IC50), Enzyme with microsomes
Throughout, for IR or R: key: Reversible (R); Irreversible (IR); ND, not detected in enzyme-based AChE inhibition assay from current study.

Chain of AChE in neural stem cells (P22303 32-614): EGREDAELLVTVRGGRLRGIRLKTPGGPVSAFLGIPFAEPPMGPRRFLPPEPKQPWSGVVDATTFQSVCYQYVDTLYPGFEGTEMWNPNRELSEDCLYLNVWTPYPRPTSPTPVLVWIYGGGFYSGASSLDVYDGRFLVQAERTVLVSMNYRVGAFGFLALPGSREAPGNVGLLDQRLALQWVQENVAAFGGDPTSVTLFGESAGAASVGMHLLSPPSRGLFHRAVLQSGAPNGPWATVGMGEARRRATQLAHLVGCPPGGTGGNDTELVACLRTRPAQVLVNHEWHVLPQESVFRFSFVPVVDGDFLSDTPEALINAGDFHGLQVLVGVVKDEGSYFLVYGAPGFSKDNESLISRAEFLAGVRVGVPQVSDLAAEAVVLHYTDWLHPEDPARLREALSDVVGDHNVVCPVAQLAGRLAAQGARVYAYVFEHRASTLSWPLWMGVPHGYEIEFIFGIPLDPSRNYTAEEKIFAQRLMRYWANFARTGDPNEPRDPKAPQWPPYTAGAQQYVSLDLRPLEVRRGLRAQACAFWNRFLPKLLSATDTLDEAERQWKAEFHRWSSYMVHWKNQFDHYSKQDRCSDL
Chain of AChE in SH-SY5Y cells (P22303 32-614): as above
T1 sequence (P22303 32-614): as above
Chain of AChE in SH-SY5Y spheroids (P22303 32-614): as above
Chain of AChE in neural stem cell spheroids (P22303 32-614): as above

| Compound | IC50 ([2]; IC50 (uM)) | CC-v2 (curve classes) [3] | Efficacy [3] | CC-v2 (curve classes) [4] | Efficacy [4] | CC-v2 (curve classes) [2] | further results |
| --- | --- | --- | --- | --- | --- | --- | --- |
| O=C(O)CC[N+](=O)[O-] [3-Nitropropionic acid] | 8.94 µM and 11.2 µM and 2.24 µM | -2.2 | -41.028 | -2.1 | -85.687 | – | IC50 ([1]; IC50 (uM)): 71 µM; IC50 ([4]; IC50 (uM)): 28.3 µM |
| COc1cc2nc(N(C)CCCNC(=O)C3CCCO3)nc(N)c2cc1OC (stereo not shown) [Alfuzosin hydrochloride, reference compound] | – | – | – | – | – | – | AC50 [5]: 14.7 µM (3×) and 13.1 µM and 7.35 µM and 9.25 µM and 10.4 µM (2×) |
| COc1ccc(OC(F)(F)F)cc1CN[C@H]1CCCN[C@H]1c1ccccc1 [CP-122721, reference compound] | – | 4 | 0 | 4 | 0 | 4 | potency (IC50), SH-SY5Y cells monolayer [2]: Inactive; potency (IC50), Enzyme-based assay with heat-inactivated microsomes [6]: Inactive; potency (IC50), Enzyme with microsomes [3]: Inactive; potency (IC50), Enzyme [4]: Inactive |
| [H]/N=C(\N/C(=N/[H])NCCCCCCNC(=N)NC(=N)Nc1ccc(Cl)cc1)Nc1ccc(Cl)cc1 [Chlorhexidine diacetate, reference compound] | 56.1 µM and 70.6 µM | 4 | 0 | -2.1 | -106.259 | -2.1 | IC50 [7]: 32.5 µM; IC50 [2, 10]: 70.9 µM; IR or R [5]: R; AC50 [5]: 78.5 µM; potency (IC50), Enzyme-based assay with heat-inactivated microsomes [6]: Inactive; potency (IC50), Enzyme with microsomes [3]: Inactive; IC50 ([8]; SH-SY5Y spheroids (24 h)): 36.1 µM; IC50 ([8]; SH-SY5Y spheroids (48 h)): 41 µM; IC50 [9, 11]: 8.31 µM; IC50 [9, 12]: 9.21 µM; IC50 ([4]; IC50 (uM)): 50 µM; IC50 ([4]; potency (IC50), Enzyme): 54.6 µM |
| CCOP(=O)(OCC)Oc1nc(Cl)c(Cl)cc1Cl [Chlorpyrifos oxon, reference compound] | – | -1.1 | -96.78 | -1.1 | -95.546 | -1.1 | reversibility of AChE inhibition (result in words) [5]: irreversibility |
| CCc1ccc(C(=O)C(C)CN2CCCCC2)cc1.Cl (stereo not shown) [Eperisone hydrochloride, reference compound] | 15.5 µM | 4 | 0 | -2.2 | -46.815 | -2.1 | IC50 [1, 13]: 38.7 µM; IC50 [7]: 19.3 µM; IC50 [2, 10]: 25.3 µM; IR or R [5]: R; AC50 [5]: 10.9 µM (3×) and 21.7 µM and 15.3 µM (2×) and 17.2 µM; IC50 [6]: 40.1 ± 2.71 µM; IC50 [9, 11]: 15 µM; IC50 [9, 12]: 13.3 µM; IC50 ([4]; potency (IC50), Enzyme): 27.4 µM |
| CNC(=O)Oc1cccc(N=CN(C)C)c1 [Formetanate hydrochloride] | – | – | – | – | – | – | AC50 [5]: 63.1 µM and 56.2 µM (2×) and 50.1 µM and 70.7 µM and 44.6 µM and 39.8 µM |
| Nc1c2c(nc3ccccc13)CCCC2O.O=C(O)/C=C\C(=O)O (stereo not shown) [Hydroxytacrine maleate, reference compound] | – | -2.1 | -93.06 | -1.1 | -95.079 | -1.1 | IR or R [5]: R |
| COP(N)(=S)Oc1ccccc1C(=O)OC(C)C (stereo not shown) [Isocarbophos] | 89.4 µM | -1.1 | -89.537 | 4 | 0 | – | IC50 ([1]; IC50 (uM)): 2.83 µM; IC50 [1, 13]: 8.21 µM; IC50 [7]: 27.8 µM; IC50 [2, 10]: 54.3 ± 9.25 µM; IC50 [6]: 55.9 µM; IC50 ([8]; SH-SY5Y spheroids (48 h)): 41.5 µM; IC50 [9, 11]: 29.9 µM; IC50 [9, 12]: 23.1 µM; AChE inhibition (result in words) [4]: did not show effects |
| CCC1(c2cccc(O)c2)CCCCN(C)C1 (stereo not shown) [Meptazinol hydrochloride, reference compound] | – | – | – | – | – | – | AC50 [5]: 4.64 µM and 9.25 µM and 3.68 µM and 5.2 µM and 8.25 µM and 5.84 µM and 6.55 µM |
| CN1CCCN=C1/C=C/c1cccs1.O=C(O)C(O)C(O)C(=O)O [Pyrantel tartrate] | – | 4 | 0 | -2.4 | -36.527 | -2.1 | IC50 ([2]; read-out: IC50): 30.9 µM and 27.5 µM and 15.5 µM; IC50 ([4]; read-out: IC50): 38.9 µM |
| COCCCOc1ccnc(C[S+]([O-])c2nc3ccccc3[nH]2)c1C (stereo not shown) [Rabeprazole sodium] | 63.1 µM and 70.7 µM | 1.1 | 92.667 | 4 | -15.052 | -2.1 and -2.2 | – |
| Cc1nc2n(c(=O)c1CCN1CCC(c3noc4cc(F)ccc34)CC1)CCCC2 [Risperidone] | – | 4 | 0 | 4 | -13.373 | -1.1 and -2.1 | – |
| CCCN(CCc1cccs1)[C@H]1CCc2c(O)cccc2C1 [Rotigotine] | 15.5 µM and 13.8 µM | 4 | 0 | -2.2 | -40.728 | -2.1 | IC50 ([4]; IC50 (uM)): 34.7 µM |
| C[n+]1cc2c3c(ccc2c2ccc4cc5c(cc4c21)OCO5)OCO3 [Sanguinarine] | 15.1 µM and 12 µM and 10.7 µM | 4 | -7.894 | -2.2 | -68.744 | -2.1 | IC50 ([4]; IC50 (uM)): 16.9 µM |
| CCN(CC)CCNC(=O)c1c(C)[nH]c(/C=C2\C(=O)Nc3ccc(F)cc32)c1C [Sunitinib malate, reference compound] | – | -2.2 | -53.539 | -1.1 | -78.177 | -1.1 | IR or R [5]: R |
| COc1cc2c(N3CCN(C(=O)Nc4ccc(OC(C)C)cc4)CC3)ncnc2cc1OCCCN1CCCCC1 [Tandutinib, reference compound] | – | 4 | -26.796 | -2.1 | -82.501 | -2.1 | Efficacy [5]: -90.305; IR or R [5]: R |
| COc1cc2nc(N3CCN(C(=O)C4CCCO4)CC3)nc(N)c2cc1OC (stereo not shown) [Terazosin hydrochloride] | 30.9 µM and 27.5 µM | 4 | 0 | -2.2 | -49.646 | – | IC50 ([4]; IC50 (uM)): 38.9 µM |
| CCOP(=S)(OCC)SCSC(C)(C)C [Terbufos] | 89.4 µM | -2.1 | – | 4 | 0 | – | IC50 ([1]; IC50 (uM)): 56.4 µM and 40.2 µM; IC50 [1, 13]: 4.27 µM; IC50 [7]: 2.31 µM; potency (IC50), SH-SY5Y cells monolayer [2]: Inactive; potency (IC50), Enzyme-based assay with heat-inactivated microsomes [6]: Inactive; IC50 ([8]; SH-SY5Y spheroids (24 h)): 2.19 µM; IC50 ([8]; SH-SY5Y spheroids (48 h)): 35.4 µM; IC50 [9, 11]: 1.83 µM; IC50 [9, 12]: 2.75 µM; AChE inhibition (result in words) [4]: did not show effects; potency (IC50), Enzyme [4]: Inactive |
| CCCCCCCCCCCCCC[n+]1ccccc1 [Tetradecylpyridinium bromide] | 31.7 µM and 39.9 µM | 4 | 0 | -2.1 | -102.568 | -1.1 and -2.1 | IC50 ([4]; IC50 (uM)): 56.4 µM |
| CN(C)C(=S)SC(=S)N(C)C [Tetramethylthiuram monosulfide] | 31.7 µM and 72.8 µM and 63.3 µM and 56.4 µM | 4 | – | 4 | – | – | – |
| CN(C)C(=S)SSC(=S)N(C)C [Thiram] | 38.9 µM and 88.1 µM and 78.5 µM and 89.4 µM and 71 µM | 4 | – | 4 | – | – | – |
| COc1cc(C(=O)NCc2ccc(OCCN(C)C)cc2)cc(OC)c1OC [Trimethobenzamide hydrochloride] | – | 4 | -14.276 | -1.1 | -75.922 | -2.1 and -1.1 | – |
| O=P(Oc1ccccc1)(Oc1ccccc1)Oc1ccccc1 [Triphenyl phosphate] | 20 µM and 19.9 µM and 22.3 µM and 35.6 µM and 31.6 µM and 28.1 µM and 25.2 µM | -2.1 | – | -1.1 | – | -1.1 and -2.1 | – |
| COP(=O)(OC)O/C(=C\Cl)c1cc(Cl)c(Cl)cc1Cl [Z-Tetrachlorvinphos] | 63.3 µM and 79.6 µM | 4 | 0 | -2.4 | -30.752 | -2.2 | IC50 ([2]; read-out: IC50): 44.8 µM; IC50 ([4]; IC50 (uM)): 71 µM |
| COc1cc(N)c(Cl)cc1C(=O)NC1CN2CCC1CC2.Cl (stereo not shown) [Zacopride hydrochloride] | – | 4 | 0 | 4 | 0 | -2.2 | – |
| O=C(CCC1CCN(Cc2ccccc2)CC1)c1ccc2c(c1)NCCCC2.O=C(O)/C=C/C(=O)O [Zanapezil fumerate, reference compound] | – | -1.1 | -97.158 | -1.1 | -97.056 | -1.1 | IR or R [5]: R |
| O=C(O)/C=C\C(=O)O.O=C(O)/C=C\C(=O)O.c1cc(CN2CCCCC2)cc(OCCCNc2nc3ccccc3s2)c1 [Zolantidine dimaleate] | – | 4 | 0 | -2.1 | -71.468 | -2.1 | IC50 ([2]; read-out: IC50): 13.8 µM and 15.5 µM; IC50 ([4]; read-out: IC50): 27.5 µM |
| CNC(=O)Oc1cccc2ccccc12 [carbaryl] | – | – | – | – | – | – | reversibility of AChE inhibition (result in words) [5]: significant IC50 difference at 60 min |
